In patent US10760110B2, “Antibiotic testing and screening system” (priority 2017, dated 2020):
Like-named read-outs stand apart in the source and are kept apart here.

Key:
Conditions in all cases: Klebsiella pneumoniae
[1] = system: K. pneumoniae NVT1001 and its ΔompK35/36 and/or ΔramR mutants; test: Etest MIC, OmpK35/36 loss and AcrAB-TolC overexpression (ΔramR) strains (Table 6); assay type: cell-based, Klebsiella pneumoniae
In short: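 Etest strips per kit instructions; off-scale intermediate readings rounded upward to the nearest two-fold concentration. Broth microdilution (CLSI) for ceftazidime, cefotaxime only. Breakpoints: CLSI 2017 generally, CLSI 2015 for cephalothin, EUCAST 2017 for moxifloxacin.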

[2] = system: K. pneumoniae NVT1001 ΔramRΔompK35/36 mutant and its revertants; test: Etest MIC, ΔramRΔompK35/36 mutant and its revertants (Table 7); assay type: cell-based
[3] = system: K. pneumoniae NVT1001 strains with carbapenemase plasmids; test: Etest MIC of β-lactams, OmpK35/36 loss, ΔramR and/or carbapenemase (Table 9); assay type: cell-based, Klebsiella pneumoniae
Method: DNA fragments of the resistance genes along with their flanking regions were amplified from clinical plasmids via PCR with specific primer pairs. The resulting PCR fragments were digested and then cloned into the plasmid pACYC177 or pACYC184. The resulting plasmids were then transformed into K. pneumoniae strain NVT1001 via electroporation. The recombinant bacteria were plated onto LB agar plates containing kanamycin (50 mg/L) or chloramphenicol (50 mg/L), and the presence of the cloned gene was confirmed via PCR and DNA sequencing.
The MICs of antibiotics were determined using the Etest (Biodisk AB, Sweden) according to the manufacturer's instructions. The MICs from the Etest, which fall between standard two-fold dilutions, were rounded up to the next highest two-fold value. The MICs of ceftazidime and cefotaxime against K. pneumoniae NVT1001 harbouring the pACYC177 plasmid with blaOXA-48 were further determined using a broth microdilution test according to the recommendations of the CLSI,^25 and the results were interpreted according to the breakpoints established by the CLSI in 2017.^25 Meanwhile, due to the lack of CLSI breakpoints in 2016 and 2017, the results for cephalothin were interpreted according to the breakpoints established by the CLSI in 2015,^26 and the results for moxifloxacin were interpreted according to the breakpoints established by the EUCAST in 2017.^27

[4] = ΔramRΔ35/36, ΔramRΔompK35/36 mutant
[5] = ΔramRΔompK35/36::ompK35/36 revertant
[6] = ΔramRΔompK35/36::ompK35 revertant
[7] = ΔramRΔompK35/36::ompK36 revertant
[8] = ΔramRΔompK35/36::ramR revertant
[9] = ΔramRΔompK35/36::ramR::ompK35/36 revertant
[10] = ΔramRΔompK35/36::ramR::ompK35 revertant
[11] = ΔramRΔompK35/36::ramR::ompK36 revertant
[12] = IMP-8 on pACYC177, WT (NVT1001), read-out: MIC
[13] = IMP-8 on pACYC177, Δ35 (ΔompK35 mutant)
[14] = IMP-8 on pACYC177, Δ35/36 (ΔompK35/36 mutant)
[15] = IMP-8 on pACYC177, Δ36 (ΔompK36 mutant)
[16] = IMP-8 on pACYC177, ΔramR mutant
[17] = IMP-8 on pACYC177, ΔramRΔ35 (ΔramRΔompK35 mutant)
[18] = IMP-8 on pACYC177, ΔramRΔ35/36 (ΔramRΔompK35/36 mutant)
[19] = IMP-8 on pACYC177, ΔramRΔ36 (ΔramRΔompK36 mutant)
[20] = KPC-2 on pACYC177, WT (NVT1001), read-out: MIC
[21] = KPC-2 on pACYC177, Δ35 (ΔompK35 mutant)
[22] = KPC-2 on pACYC177, Δ35/36 (ΔompK35/36 mutant)
[23] = KPC-2 on pACYC177, Δ36 (ΔompK36 mutant)
[24] = KPC-2 on pACYC177, ΔramR mutant
[25] = KPC-2 on pACYC177, ΔramRΔ35 (ΔramRΔompK35 mutant)
[26] = KPC-2 on pACYC177, ΔramRΔ35/36 (ΔramRΔompK35/36 mutant)
[27] = KPC-2 on pACYC177, ΔramRΔ36 (ΔramRΔompK36 mutant)
[28] = KPC-3 on pACYC177, WT (NVT1001), read-out: MIC
[29] = KPC-3 on pACYC177, Δ35 (ΔompK35 mutant)
[30] = KPC-3 on pACYC177, Δ35/36 (ΔompK35/36 mutant)
[31] = KPC-3 on pACYC177, Δ36 (ΔompK36 mutant)
[32] = KPC-3 on pACYC177, ΔramR mutant
[33] = KPC-3 on pACYC177, ΔramRΔ35 (ΔramRΔompK35 mutant)
[34] = KPC-3 on pACYC177, ΔramRΔ35/36 (ΔramRΔompK35/36 mutant)
[35] = KPC-3 on pACYC177, ΔramRΔ36 (ΔramRΔompK36 mutant)
[36] = NDM-1 on pACYC177, WT (NVT1001), read-out: MIC
[37] = NDM-1 on pACYC177, Δ35 (ΔompK35 mutant)
[38] = NDM-1 on pACYC177, Δ35/36 (ΔompK35/36 mutant)
[39] = NDM-1 on pACYC177, Δ36 (ΔompK36 mutant)
[40] = NDM-1 on pACYC177, ΔramR mutant
[41] = NDM-1 on pACYC177, ΔramRΔ35 (ΔramRΔompK35 mutant)
[42] = NDM-1 on pACYC177, ΔramRΔ35/36 (ΔramRΔompK35/36 mutant)
[43] = NDM-1 on pACYC177, ΔramRΔ36 (ΔramRΔompK36 mutant)
[44] = OXA-48 on pACYC177, WT (NVT1001), read-out: MIC
[45] = OXA-48 on pACYC177, Δ35 (ΔompK35 mutant)
[46] = OXA-48 on pACYC177, Δ35/36 (ΔompK35/36 mutant)
[47] = OXA-48 on pACYC177, Δ36 (ΔompK36 mutant)
[48] = OXA-48 on pACYC177, ΔramR mutant
[49] = OXA-48 on pACYC177, ΔramRΔ35 (ΔramRΔompK35 mutant)
[50] = OXA-48 on pACYC177, ΔramRΔ35/36 (ΔramRΔompK35/36 mutant)
[51] = OXA-48 on pACYC177, ΔramRΔ36 (ΔramRΔompK36 mutant)
[52] = VIM-1 on pACYC177, WT (NVT1001), read-out: MIC
[53] = VIM-1 on pACYC177, Δ35 (ΔompK35 mutant)
[54] = VIM-1 on pACYC177, Δ35/36 (ΔompK35/36 mutant)
[55] = VIM-1 on pACYC177, Δ36 (ΔompK36 mutant)
[56] = VIM-1 on pACYC177, ΔramR mutant
[57] = VIM-1 on pACYC177, ΔramRΔ35 (ΔramRΔompK35 mutant)
[58] = VIM-1 on pACYC177, ΔramRΔ35/36 (ΔramRΔompK35/36 mutant)
[59] = VIM-1 on pACYC177, ΔramRΔ36 (ΔramRΔompK36 mutant)
[60] = no supplemental plasmid, WT (NVT1001), read-out: MIC
[61] = no supplemental plasmid, Δ35 (ΔompK35 mutant)
[62] = no supplemental plasmid, Δ35/36 (ΔompK35/36 mutant)
[63] = no supplemental plasmid, Δ36 (ΔompK36 mutant)
[64] = no supplemental plasmid, ΔramR mutant
[65] = no supplemental plasmid, ΔramRΔ35 (ΔramRΔompK35 mutant)
[66] = no supplemental plasmid, ΔramRΔ35/36 (ΔramRΔompK35/36 mutant)
[67] = no supplemental plasmid, ΔramRΔ36 (ΔramRΔompK36 mutant)

Measured: MIC

CO/N=C(\C(=O)N[C@@H]1C(=O)N2C(C(=O)[O-])=C(C[N+]3(C)CCCC3)CS[C@H]12)c1csc(N)n1 [Cefepime]
2 µg/mL: [1]; [4] | [2]; [6] | [2]; ΔramRΔompK35/36 mutant | [3]; [66]
256 µg/mL: [3]; [31] | [3]; [41] | [3]; [53]
16 µg/mL: [3]; [12]
4 µg/mL: [1]; ΔramRΔ36, ΔramRΔompK36 mutant | [3]; [67]
0.5 µg/mL: [1]; ΔramR mutant | [1]; ΔramRΔ35, ΔramRΔompK35 mutant | [2]; [5] | [2]; [7] | [3]; [44] | [3]; [64] | [3]; [65]
1 µg/mL: [1]; Δ35/36, ΔompK35/36 mutant | [2]; [8] | [3]; [45] | [3]; [47] | [3]; [48] | [3]; [49] | [3]; [62]
32 µg/mL: [3]; [13] | [3]; [16] | [3]; [36]
0.125 µg/mL: [1]; Δ35, ΔompK35 mutant | [1]; Δ36, ΔompK36 mutant | [2]; [10] | [2]; [11] | [3]; [61] | [3]; [63]
> 256 µg/mL: [3]; [14] | [3]; [22] | [3]; [26] | [3]; [27] | [3]; [30] | [3]; [34] | [3]; [35] | [3]; [38] | [3]; [39] | [3]; [40] | [3]; [42] | [3]; [43] | [3]; [54] | [3]; [55] | [3]; [56] | [3]; [57] | [3]; [58] | [3]; [59]
128 µg/mL: [3]; [18] | [3]; [19] | [3]; [28] | [3]; [29] | [3]; [32] | [3]; [33] | [3]; [37] | [3]; [52]
64 µg/mL: [3]; [15] | [3]; [17] | [3]; [20] | [3]; [21] | [3]; [23] | [3]; [24] | [3]; [25]
8 µg/mL: [3]; [46] | [3]; [50] | [3]; [51]
0.06 µg/mL: [1]; WT, NVT1001, read-out: MIC | [2]; [9] | [3]; [60]

CO/N=C(\C(=O)N[C@@H]1C(=O)N2C(C(=O)O)=C(COC(C)=O)CS[C@H]12)c1csc(N)n1 [Cefotaxime]
2 µg/mL: [1]; Δ35/36, ΔompK35/36 mutant | [2]; [8] | [3]; [44] | [3]; [62]
0.06 µg/mL: [1]; WT, NVT1001, read-out: MIC | [2]; [9] | [3]; [60]
32 µg/mL: [3]; [46] | [3]; [50] | [3]; [51]
1 µg/mL: [1]; ΔramR mutant | [1]; ΔramRΔ35, ΔramRΔompK35 mutant | [2]; [5] | [2]; [7] | [3]; [64] | [3]; [65]
> 256 µg/mL: [3]; [14] | [3]; [22] | [3]; [26] | [3]; [27] | [3]; [30] | [3]; [34] | [3]; [35] | [3]; [38] | [3]; [39] | [3]; [40] | [3]; [41] | [3]; [42] | [3]; [43] | [3]; [52] | [3]; [53] | [3]; [54] | [3]; [55] | [3]; [56] | [3]; [57] | [3]; [58] | [3]; [59]
0.25 µg/mL: [1]; Δ36, ΔompK36 mutant | [2]; [10] | [3]; [63]
0.125 µg/mL: [1]; Δ35, ΔompK35 mutant | [2]; [11] | [3]; [61]
64 µg/mL: [3]; [12]
128 µg/mL: [3]; [13] | [3]; [16] | [3]; [17] | [3]; [20] | [3]; [28]
16 µg/mL: [3]; [47]
256 µg/mL: [3]; [15] | [3]; [18] | [3]; [19] | [3]; [21] | [3]; [23] | [3]; [24] | [3]; [25] | [3]; [29] | [3]; [31] | [3]; [32] | [3]; [33] | [3]; [36] | [3]; [37]
4 µg/mL: [1]; [4] | [1]; ΔramRΔ36, ΔramRΔompK36 mutant | [2]; [6] | [2]; ΔramRΔompK35/36 mutant | [3]; [45] | [3]; [48] | [3]; [49] | [3]; [66] | [3]; [67]
